# Assay results as given in PubChem BioAssay AID2060506 (Molecular Pharmacology Branch, DTP, NCI, 2025).
# Test system: 598228-144-R-J1-PDC complex spheroid viability
# Assay: Anticancer human tumor 598228-144-R-J1-PDC patient-derived serous endometrial adenocarcinoma cell line growth inhibition [GQUAD]
# Details: for IC50: curve of first compound; for viability, T/C: stronger effect = lower value
# In short: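 Viability of tumor cells grown as complex spheroids with endothelial and stromal cells, exposed to drug combinations. Top concentration at or near clinical Cmax (else 10 microM), diluted in half-log increments.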
# [1] = second compound 0.0316 µM, first compound 0.000999 µM
# [2] = second compound 0.0316 µM, first compound 0.00316 µM
# [3] = second compound 0.0316 µM, first compound 0.00999 µM
# [4] = second compound 0.0316 µM, first compound 0.0316 µM
# [5] = second compound 0.0316 µM, first compound 0.0999 µM
# [6] = second compound 0.0316 µM, first compound 0.316 µM
# [7] = second compound 0.1 µM, first compound 0.000999 µM
# [8] = second compound 0.1 µM, first compound 0.00316 µM
# [9] = second compound 0.1 µM, first compound 0.00999 µM
# [10] = second compound 0.1 µM, first compound 0.0316 µM
# [11] = second compound 0.1 µM, first compound 0.0999 µM
# [12] = second compound 0.1 µM, first compound 0.316 µM
# [13] = second compound 0.316 µM, first compound 0.000999 µM
# [14] = second compound 0.316 µM, first compound 0.00316 µM
# [15] = second compound 0.316 µM, first compound 0.00999 µM
# [16] = second compound 0.316 µM, first compound 0.0316 µM
# [17] = second compound 0.316 µM, first compound 0.0999 µM
# [18] = second compound 0.316 µM, first compound 0.316 µM
# [19] = second compound 1 µM, first compound 0.000999 µM
# [20] = second compound 1 µM, first compound 0.00316 µM
# [21] = second compound 1 µM, first compound 0.00999 µM
# [22] = second compound 1 µM, first compound 0.0316 µM
# [23] = second compound 1 µM, first compound 0.0999 µM
# [24] = second compound 1 µM, first compound 0.316 µM
# [25] = second compound 3.16 µM, first compound 0.000999 µM
# [26] = second compound 3.16 µM, first compound 0.00316 µM
# [27] = second compound 3.16 µM, first compound 0.00999 µM
# [28] = second compound 3.16 µM, first compound 0.0316 µM
# [29] = second compound 3.16 µM, first compound 0.0999 µM
# [30] = second compound 3.16 µM, first compound 0.316 µM
# [31] = second compound 10 µM, first compound 0.000999 µM
# [32] = second compound 10 µM, first compound 0.00316 µM
# [33] = second compound 10 µM, first compound 0.00999 µM
# [34] = second compound 10 µM, first compound 0.0316 µM
# [35] = second compound 10 µM, first compound 0.0999 µM
# [36] = second compound 10 µM, first compound 0.316 µM
# [37] = second compound 0.0316 µM, first compound 0.1 µM
# [38] = second compound 0.0316 µM, first compound 1 µM
# [39] = second compound 0.0316 µM, first compound 3.16 µM
# [40] = second compound 0.0316 µM, first compound 10 µM
# [41] = second compound 0.1 µM, first compound 0.1 µM
# [42] = second compound 0.1 µM, first compound 1 µM
# [43] = second compound 0.1 µM, first compound 3.16 µM
# [44] = second compound 0.1 µM, first compound 10 µM
# [45] = second compound 0.316 µM, first compound 0.1 µM
# [46] = second compound 0.316 µM, first compound 1 µM
# [47] = second compound 0.316 µM, first compound 3.16 µM
# [48] = second compound 0.316 µM, first compound 10 µM
# [49] = second compound 1 µM, first compound 0.1 µM
# [50] = second compound 1 µM, first compound 1 µM
# [51] = second compound 1 µM, first compound 3.16 µM
# [52] = second compound 1 µM, first compound 10 µM
# [53] = second compound 3.16 µM, first compound 0.1 µM
# [54] = second compound 3.16 µM, first compound 1 µM
# [55] = second compound 3.16 µM, first compound 3.16 µM
# [56] = second compound 3.16 µM, first compound 10 µM
# [57] = second compound 10 µM, first compound 0.1 µM
# [58] = second compound 10 µM, first compound 1 µM
# [59] = second compound 10 µM, first compound 3.16 µM
# [60] = second compound 10 µM, first compound 10 µM
# 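Note: spheroids exposed to the agents for one week before reading.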
# 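Throughout, for viability, T/C: percent of vehicle DMSO control viability so 100% = untreated growth.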
compound,measurement,setting,value
CCc1c2c(nc3ccc(O)cc13)-c1cc3c(c(=O)n1C2)COC(=O)[C@]3(O)CC + Cc1[nH]c2ccc(F)cc2c1-c1nc2c3cccnc3c3ncccc3c2[nH]1,IC50,second compound 0.0316 µM,21 nM
same,IC50,second compound 0.1 µM,13.9 nM
same,IC50,second compound 0.316 µM,37.2 nM
same,IC50,second compound 1 µM,2.57 nM
same,IC50,second compound 3.16 µM,< 0.999 nM
same,IC50,second compound 10 µM,2.09 nM
same,"viability, T/C",[1],74.7%
same,"viability, T/C",[2],73.5%
same,"viability, T/C",[3],53.8%
same,"viability, T/C",[4],42.9%
same,"viability, T/C",[5],37.9%
same,"viability, T/C",[6],13.8%
same,"viability, T/C",[7],67%
same,"viability, T/C",[8],67.6%
same,"viability, T/C",[9],55.4%
same,"viability, T/C",[10],34.9%
same,"viability, T/C",[11],31.3%
same,"viability, T/C",[12],19.5%
same,"viability, T/C",[13],75.9%
same,"viability, T/C",[14],62.7%
same,"viability, T/C",[15],66.3%
same,"viability, T/C",[16],53.4%
same,"viability, T/C",[17],34.3%
same,"viability, T/C",[18],21.4%
same,"viability, T/C",[19],55%
same,"viability, T/C",[20],47.3%
same,"viability, T/C",[21],43%
same,"viability, T/C",[22],37.9%
same,"viability, T/C",[23],27.8%
same,"viability, T/C",[24],17.8%
same,"viability, T/C",[25],40.6%
same,"viability, T/C",[26],36.1%
same,"viability, T/C",[27],29.7%
same,"viability, T/C",[28],29.2%
same,"viability, T/C",[29],13.1%
same,"viability, T/C",[30],8.4%
same,"viability, T/C",[31],57%
same,"viability, T/C",[32],45.1%
same,"viability, T/C",[33],38.8%
same,"viability, T/C",[34],29.7%
same,"viability, T/C",[35],24.1%
same,"viability, T/C",[36],20.4%
Cc1cccc(N(C)C(=O)C2C(O)CCN2c2nc(C)cc(C(F)(F)F)c2C#N)c1 (stereo not drawn) + Cc1[nH]c2ccc(F)cc2c1-c1nc2c3cccnc3c3ncccc3c2[nH]1,IC50,second compound 0.0316 µM,> 10000 nM
same,IC50,second compound 0.1 µM,> 10000 nM
same,IC50,second compound 0.316 µM,> 10000 nM
same,IC50,second compound 1 µM,> 10000 nM
same,IC50,second compound 3.16 µM,< 31.6 nM
same,IC50,second compound 10 µM,> 10000 nM
same,"viability, T/C",[4],114%
same,"viability, T/C",[37],113%
same,"viability, T/C",[6],112%
same,"viability, T/C",[38],82%
same,"viability, T/C",[39],104%
same,"viability, T/C",[40],100%
same,"viability, T/C",[10],110%
same,"viability, T/C",[41],112%
same,"viability, T/C",[12],98%
same,"viability, T/C",[42],94.1%
same,"viability, T/C",[43],104%
same,"viability, T/C",[44],81.7%
same,"viability, T/C",[16],99.8%
same,"viability, T/C",[45],90.3%
same,"viability, T/C",[18],80.9%
same,"viability, T/C",[46],79.2%
same,"viability, T/C",[47],83.9%
same,"viability, T/C",[48],92.7%
same,"viability, T/C",[22],58.6%
same,"viability, T/C",[49],52.7%
same,"viability, T/C",[24],56.2%
same,"viability, T/C",[50],45%
same,"viability, T/C",[51],71.1%
same,"viability, T/C",[52],57.7%
same,"viability, T/C",[28],40.8%
same,"viability, T/C",[53],45.4%
same,"viability, T/C",[30],52.6%
same,"viability, T/C",[54],34.9%
same,"viability, T/C",[55],39.5%
same,"viability, T/C",[56],36.1%
same,"viability, T/C",[34],68.4%
same,"viability, T/C",[57],44.8%
same,"viability, T/C",[36],53.5%
same,"viability, T/C",[58],67.3%
same,"viability, T/C",[59],58%
same,"viability, T/C",[60],61.6%
Cn1ncnc1[C@H]1c2n[nH]c(=O)c3cc(F)cc(c23)N[C@@H]1c1ccc(F)cc1 + Cc1[nH]c2ccc(F)cc2c1-c1nc2c3cccnc3c3ncccc3c2[nH]1,IC50,second compound 0.0316 µM,> 316 nM
same,IC50,second compound 0.1 µM,> 316 nM
same,IC50,second compound 0.316 µM,> 316 nM
same,IC50,second compound 1 µM,> 316 nM
same,IC50,second compound 3.16 µM,< 0.999 nM
same,IC50,second compound 10 µM,> 316 nM
same,"viability, T/C",[1],125%
same,"viability, T/C",[2],86.2%
same,"viability, T/C",[3],106%
same,"viability, T/C",[4],71.6%
same,"viability, T/C",[5],80.8%
same,"viability, T/C",[6],83.3%
same,"viability, T/C",[7],103%
same,"viability, T/C",[8],99%
same,"viability, T/C",[9],78.8%
same,"viability, T/C",[10],70.6%
same,"viability, T/C",[11],93.8%
same,"viability, T/C",[12],73.3%
same,"viability, T/C",[13],78.6%
same,"viability, T/C",[14],79.3%
same,"viability, T/C",[15],76.6%
same,"viability, T/C",[16],72%
same,"viability, T/C",[17],69.7%
same,"viability, T/C",[18],60.4%
same,"viability, T/C",[19],63.9%
same,"viability, T/C",[20],59.2%
same,"viability, T/C",[21],66.2%
same,"viability, T/C",[22],56.7%
same,"viability, T/C",[23],50.9%
same,"viability, T/C",[24],57.7%
same,"viability, T/C",[25],33.1%
same,"viability, T/C",[26],43.8%
same,"viability, T/C",[27],51.1%
same,"viability, T/C",[28],37.9%
same,"viability, T/C",[29],39.6%
same,"viability, T/C",[30],40.3%
same,"viability, T/C",[31],64.3%
same,"viability, T/C",[32],58.9%
same,"viability, T/C",[33],64.6%
same,"viability, T/C",[34],53%
same,"viability, T/C",[35],55.6%
same,"viability, T/C",[36],51.8%
O=C(c1cc(Cc2n[nH]c(=O)c3ccccc23)ccc1F)N1CCN(C(=O)C2CC2)CC1 + Cc1[nH]c2ccc(F)cc2c1-c1nc2c3cccnc3c3ncccc3c2[nH]1,IC50,second compound 0.0316 µM,> 10000 nM
same,IC50,second compound 0.1 µM,> 10000 nM
same,IC50,second compound 0.316 µM,> 10000 nM
same,IC50,second compound 1 µM,> 10000 nM
same,IC50,second compound 3.16 µM,< 31.6 nM
same,IC50,second compound 10 µM,> 10000 nM
same,"viability, T/C",[4],110%
same,"viability, T/C",[37],95.2%
same,"viability, T/C",[6],92.1%
same,"viability, T/C",[38],105%
same,"viability, T/C",[39],96.4%
same,"viability, T/C",[40],97.5%
same,"viability, T/C",[10],91.4%
same,"viability, T/C",[41],107%
same,"viability, T/C",[12],87.8%
same,"viability, T/C",[42],88.3%
same,"viability, T/C",[43],85.8%
same,"viability, T/C",[44],73.8%
same,"viability, T/C",[16],72.9%
same,"viability, T/C",[45],90.7%
same,"viability, T/C",[18],78%
same,"viability, T/C",[46],79%
same,"viability, T/C",[47],68.7%
same,"viability, T/C",[48],71%
same,"viability, T/C",[22],56.1%
same,"viability, T/C",[49],66.6%
same,"viability, T/C",[24],64.3%
same,"viability, T/C",[50],67.1%
same,"viability, T/C",[51],60.1%
same,"viability, T/C",[52],58.1%
same,"viability, T/C",[28],40.8%
same,"viability, T/C",[53],44.4%
same,"viability, T/C",[30],38.6%
same,"viability, T/C",[54],42%
same,"viability, T/C",[55],50.8%
same,"viability, T/C",[56],45.4%
same,"viability, T/C",[34],70.9%
same,"viability, T/C",[57],57.8%
same,"viability, T/C",[36],65.9%
same,"viability, T/C",[58],61.5%
same,"viability, T/C",[59],49.6%
same,"viability, T/C",[60],61.6%
